Results reported in PubChem BioAssay AID789 (SRMLSC, 2007).
Calls of active or inactive are those of the source. No rule for the calls is given here.

What was measured:
[1] = growth inhibition of apl2Δ yeast, dose response, selectivity assay for post-Golgi transport modulator project, S. cerevisiae, secondary screen, background strain comparison (AID 789); conditions: for IC50: S. cerevisiae background (wild-type parent) strain growth inhibition; for growth inhibition: S. cerevisiae apl2Δ mutant growth inhibition, at 25 µM (top of the series)
[2] = test system: S. cerevisiae apl2Δ mutant growth inhibition; experiment: as above

SMILES | IC50 [1] | IC50 [2] | growth inhibition [1]
COc1ccc(C(=O)Nc2ccc(Cl)cc2C(=O)N2CCCC(C)C2)cc1 (stereo not drawn) | > 10 µM | 22.4 µM | –
O=C(NCC(c1cccnc1)N1CCN(c2ccccc2)CC1)c1ccc2c(c1)OCO2 (stereo not drawn) | > 10 µM | > 10 µM (inactive) | –
COC(=O)c1ccc(NC(=O)c2cn(-c3ccccc3)nc2-c2ccncc2)cc1 | > 10 µM | > 10 µM (inactive) | –
Cc1ccc(S(=O)(=O)N2CCN(C3CCN(Cc4ccccc4)CC3)CC2)cc1 | > 10 µM | > 10 µM (inactive) | –
COc1ccc2c(c1)C(C)=CC(C)(C)N2C(=O)CSc1nnc(-c2ccc(C)cc2)o1 | > 10 µM | > 10 µM (inactive) | –
O=C(OCn1ncc(Cl)c(Cl)c1=O)c1cccc(C(F)(F)F)c1 | 3.51 µM | – | –
Cc1ccc(C2N(c3ccc(Cl)c(Cl)c3)C(=O)C3CCCN32)o1 (stereo not drawn) | > 10 µM | > 10 µM (inactive) | –
O=C(Nc1nnc(-c2cccs2)o1)c1cccc(C(F)(F)F)c1 | – | > 10 µM (inactive) | –
CC(=O)c1ccc(N2CCN(C(=O)c3ccc(Br)cc3)CC2)c(F)c1 | 6.58 µM | – | –
Cc1[nH]nc(N=CC2=C(O)CC(C)(C)CC2=O)c1-c1ccc(Cl)cc1 | – | > 10 µM (inactive) | –
c1ccc(COc2ccc(CN3CCN(c4ccccn4)CC3)cc2)cc1 | > 10 µM | > 10 µM (inactive) | –
CCCCC(c1nnnn1Cc1ccco1)N1CCN(c2nc3ccccc3s2)CC1 (stereo not drawn) | 3.9 µM | – | –
CC(=O)Nc1ccccc1NS(=O)(=O)c1ccc(Cl)cc1 | > 10 µM | > 10 µM (inactive) | –
C=C(C)C1CC=C(CN2CCC(C(=O)OCC)CC2)CC1 (stereo not drawn) | > 10 µM | > 10 µM (inactive) | –
O=C(NCc1ccc2c(c1)OCO2)C1CCCN1C(=O)Nc1ccccc1 (stereo not drawn) | > 10 µM | > 10 µM (inactive) | –
O=[N+]([O-])c1ccc(N/N=C/c2c[nH]c3ccccc23)c(S(=O)(=O)Nc2ccc(Cl)cc2)c1 | 2.5 µM | 7.17 µM (inactive) | –
CCOCCCNC(=O)C1CCN(C(=O)N(C)C)CC1 | > 10 µM | > 10 µM (inactive) | –
O=C(N/N=C/c1ccc([N+](=O)[O-])o1)c1cc(-c2cccc(Br)c2)nc2ccccc12 | 4.65 µM | – | 42.1% (inactive)
O=S1(=O)C=C(Sc2nnc(-c3ccccc3)o2)c2ccccc21 | – | > 10 µM (inactive) | –
CC1CCCCC1NC(=O)CSc1nnnn1-c1ccccc1 (stereo not drawn) | > 10 µM | > 10 µM (inactive) | –
O=C(NCC(=O)N(c1cccnc1)C(C(=O)NCc1ccco1)c1ccccc1)c1ccco1 (stereo not drawn) | > 10 µM | > 10 µM (inactive) | –
Cc1ccc(-n2cc3c(-c4cccc(Br)c4)nnc(C)c3n2)cc1 | 13.5 µM | 15.4 µM (inactive) | –

SMILES | IC50 [1] | IC50 [2] | growth inhibition [1]
CCOC(=O)c1ccc(NC(=O)c2ccc(CN3CCOCC3)cc2)cc1 | > 10 µM | > 10 µM (inactive) | –
CC(C)Oc1ccc(/C(O)=C2/C(=O)C(=O)N(CCN(C)C)C2c2ccco2)cc1 (stereo not drawn) | > 10 µM | > 10 µM (inactive) | –
O=C(NCC(c1cccnc1)N1CCN(c2ccc(F)cc2)CC1)OCc1ccccc1 (stereo not drawn) | – | 23.4 µM | –
CC(C)Cc1[nH]c(=O)c(C#N)c2c1CCC2 | > 10 µM | > 10 µM (inactive) | –
Cc1ccc(S(=O)(=O)N2CC3CC(C2)c2cccc(=O)n2C3)cc1 (stereo not drawn) | > 10 µM | > 10 µM (inactive) | –
Cn1nnc2cc(C(=O)Nc3cccnc3)ccc21 | > 10 µM | > 10 µM (inactive) | –
O=C(OCn1ncc(Br)c(Br)c1=O)c1ccccc1Cl | – | > 10 µM (inactive) | –
CCOC(=O)C1=C(CSc2nc(-c3ccccc3)ccc2C#N)OC(N)=C(C#N)C1c1cccnc1 (stereo not drawn) | > 10 µM | > 10 µM (inactive) | –
O=C(NCC(c1cccnc1)N1CCN(c2ccccc2)CC1)C1CCCCC1 (stereo not drawn) | > 10 µM | > 10 µM (inactive) | –
COc1ccccc1N1CCN(CC(O)c2ccc3cc[nH]c3c2)CC1 (stereo not drawn) | > 10 µM | > 10 µM (inactive) | –
CCOCCCNC(=O)c1cc2sc(Cl)cc2n1CC | > 10 µM | > 10 µM (inactive) | –
Cc1c(C)c2cc(Cl)c(O)c(CN3CCN(C)CC3)c2oc1=O | > 10 µM | > 10 µM (inactive) | –
O=C(Cn1ncc2c3ccccc3n(Cc3ccccc3F)c2c1=O)N1CCC2(CC1)OCCO2 | > 10 µM | > 10 µM (inactive) | –
Cc1ccc2nc(C)cc(OCC(=O)O)c2c1 | > 10 µM | > 10 µM (inactive) | –
Fc1ccc(Cn2nnc(-c3ccc(CN4CCOCC4)cc3)n2)cc1 | > 10 µM | > 10 µM (inactive) | –
COCCCn1c2nc3ccccc3nc2c2c(=O)n(-c3ccccc3OC)cnc21 | > 10 µM | > 10 µM (inactive) | –
C=C(C)COc1ccc(-c2ncncc2Oc2ccc(OC)cc2)c(O)c1 | > 10 µM | > 10 µM (inactive) | –
CCC(=O)N(CCO)Cc1cc2ccc(C)c(C)c2[nH]c1=O | > 10 µM | > 10 µM (inactive) | –
CCC(C)(C)NC(=O)CN(C(=O)CCC(=O)Nc1ccccn1)c1ccc(F)c(Cl)c1 | > 10 µM | > 10 µM (inactive) | –
N#Cc1cn(-c2ccccc2)nc1-c1cc2ccccc2oc1=O | > 10 µM | > 10 µM (inactive) | –
Cc1nn(Cc2cccc(C(=O)NC(C)c3ccc(C(C)(C)C)cc3)c2)c(C)c1[N+](=O)[O-] (stereo not drawn) | > 10 µM | > 10 µM (inactive) | –
O=C(c1ccco1)N1CCN(c2ncnc3c2[nH]c2ccccc23)CC1 | > 10 µM | > 10 µM (inactive) | –

SMILES | IC50 [1] | IC50 [2] | growth inhibition [1]
Clc1ccc(-c2n[nH]c3c2CCC3)cc1Cl | 1.81 µM | 2.74 µM (inactive) | –
CCCCC1(CCCC)C(=O)NC(=Nc2cccc(C)c2)NC1=O | > 10 µM | > 10 µM (inactive) | –
O=[N+]([O-])c1cc(Cl)cc(/C=N\Nc2ccccn2)c1O | – | > 10 µM (inactive) | –
CCC(OC(=O)C(NC(=O)c1ccccc1)c1ccccc1)C(=O)Nc1cc(C)on1 (stereo not drawn) | > 10 µM | > 10 µM (inactive) | –
CC1CC(C)CN(CCOc2ccc(Cl)cc2Cl)C1 (stereo not drawn) | > 10 µM | > 10 µM (inactive) | –
O=C(CCl)c1ccc(Cc2ncc(C(F)(F)F)cc2Cl)s1 | 8.68 µM | > 10 µM (inactive) | –
CCCC(=O)Nc1ccc(Cl)c(NC(=O)c2cccnc2Cl)c1 | > 10 µM | > 10 µM (inactive) | –
O=C(c1ccc(Cl)cc1Cl)N1CCC(c2nc3c(nnn3Cc3ccco3)c(=O)[nH]2)CC1 | > 10 µM | > 10 µM (inactive) | –
O=[N+]([O-])c1ccc(N2CCN(S(=O)(=O)c3ccc(Cl)cc3)CC2)cc1NCc1cccnc1 | > 10 µM | > 10 µM (inactive) | –
CCOC(=O)c1cccnc1SCc1cc(=O)n2ccccc2n1 | > 10 µM | > 10 µM (inactive) | –
O=C(O)Cn1c(SCCOc2ccccc2F)nc2ccccc21 | > 10 µM | > 10 µM (inactive) | –
CC1CN(CCCCOc2ccc(C(C)C)cc2)CC(C)O1 (stereo not drawn) | > 10 µM | – | –
Cc1ccc(Cl)c(OCCCCN(C)Cc2ccccc2)c1 | > 10 µM | – | –
Cc1cccc(-c2nnc(-c3cccc(NC(=O)Cc4cccs4)c3)o2)c1 | 15.2 µM | – | –
O=C(Nc1ccccc1)C1=C(O)CC(c2ccco2)CC1=Nc1ccccc1 (stereo not drawn) | > 10 µM | – | –
N[C@@H](Cc1c[nH]c2ccccc12)c1nnc(SCc2ccc(Cl)cc2)o1 | 20.4 µM | – | –
O=C1C=C(c2ccccc2)C(=O)N1Nc1ccccc1 | – | > 10 µM (inactive) | –
CCOc1nc(SCCOc2ccccc2)nc(N(C)C)n1 | – | > 10 µM (inactive) | –
CCOc1ccc(NC(=O)N(C2CCCCC2)C(C)c2cccnc2)cc1 (stereo not drawn) | – | 21.5 µM | –
O=C1c2ccccc2C(=O)c2c1oc(C(F)(F)F)c2C(=O)c1ccccc1 | 2.2 µM | – | –
CCCCCCCCNc1ncnc2ccccc12 | 14.8 µM | – | –
CC1CCN(S(=O)(=O)c2ccc(NC(=O)CCN3C(=O)c4ccccc4C3=O)cc2)CC1 | – | > 10 µM (inactive) | –

SMILES | IC50 [1] | IC50 [2] | growth inhibition [1]
O=C(Nc1nnc(-c2ccccc2)o1)c1ccc(Cl)cc1 | 0.65 µM | – | 40.8% (inactive)
O=C(CC(=O)c1cc(Cl)ccc1O)c1ccccc1 | 12.7 µM | – | –
O=S1(=O)C=C(Sc2nc3ccccc3s2)c2ccccc21 | – | > 10 µM (inactive) | –
O=S(=O)(Cc1ccccc1Cl)N1CCN(Cc2ccc3c(c2)OCO3)CC1 | – | > 10 µM (inactive) | –
CC1CCC(C(C)C)C(OCC(O)CN2CCN(Cc3ccccc3)CC2)C1 (stereo not drawn) | – | 19.3 µM | –
CCOC(=O)c1ccc(NC(=O)c2cn(-c3ccccc3)nc2-c2ccncc2)cc1 | 11.5 µM | – | 18.6% (inactive)
O=C(CN1CCN(c2ccccn2)CC1)Nc1ccc(Oc2ccccc2)cc1 | – | > 10 µM (inactive) | –
CC(Sc1ccsc1[N+](=O)[O-])C(=O)NCCc1ccc(Cl)cc1 (stereo not drawn) | – | > 10 µM (inactive) | –
N#Cc1ccccc1Cn1cc(C(=O)c2cccs2)c2ccccc21 | – | > 10 µM (inactive) | –
CC(C)c1ccc(C(=O)CSc2n[nH]c(-c3ccncc3)n2)cc1 | – | 17 µM | –
N=c1c2c(-c3ccccc3)c(-c3ccccc3)n(Cc3ccco3)c2ncn1Cc1ccccc1 | – | 20.9 µM | –
COc1ccc(OCCSc2nnc3sc4ccccc4n23)cc1 | – | > 10 µM (inactive) | –
CCCCC(=O)Nc1nc(C)c(-c2csc(Nc3ccc(Cl)cc3)n2)s1 | 6.26 µM | – | –
O=C(OCn1ncc(Br)c(Br)c1=O)c1c(F)cccc1F | – | > 10 µM (inactive) | –
O=C(Nc1nnc(-c2ccc3c(c2)CCCC3)o1)c1ccccc1 | – | > 10 µM (inactive) | –
C=CCc1ccc(OCCCCN2CC(C)OC(C)C2)c(OC)c1 (stereo not drawn) | > 10 µM | – | 34.1% (inactive)
O=C(Nc1nnc(C2CC2)o1)c1ccc(S(=O)(=O)N2CCCc3ccccc32)cc1 | 3.17 µM | – | 30.1% (inactive)
CC12CCC(c3c(C(=O)Nc4nccs4)nn(-c4ccccc4)c31)C2(C)C (stereo not drawn) | – | > 10 µM (inactive) | –
CCCCCOc1ccc(CN2CCOCC2)cc1Cl | > 10 µM | – | –
CC(c1nnc(SCn2nnc3ccccc3c2=O)n1-c1ccc(Cl)cc1)N(C)C (stereo not drawn) | – | > 10 µM (inactive) | –
Cc1ccc(OCC(O)CN2CCN(Cc3ccc4c(c3)OCO4)CC2)c(C)c1 (stereo not drawn) | > 10 µM | – | –
O=C(C1CCCN(S(=O)(=O)c2ccc(Cl)cc2)C1)N(Cc1cccs1)C1CC1 (stereo not drawn) | – | > 10 µM (inactive) | –
